{"source": "patent US12318373B2", "about": "“Methods of treating gastrointestinal stromal tumors” (Deciphera Pharmaceuticals, LLC, priority 2019, dated 2025)", "tested_on": "advanced GIST", "test": "Example 2: randomized, double-blind, placebo-controlled study, efficacy (PFS, ORR, OS)", "format": "in vivo, human", "conditions": "for PFS by BICR: events, % / PFS by BICR: number of events: N = 85", "source_text": "Example 2. A Randomized, Double-blind, Placebo-controlled, International, Multicenter Study to Evaluate the Safety, Tolerability, and Efficacy of Ripretinib Compared to Placebo in Patients with Advanced GIST Whose Previous Therapies Have Included Imatinib, Sunitinib, and Regorafenib\nThis study was a randomized (2:1), double-blind, placebo-controlled, international, multicenter study to evaluate the safety, tolerability, and efficacy of ripretinib compared to placebo in 129 patients with advanced GIST whose previous therapies have included at least imatinib, sunitinib, and regorafenib. Patients were randomized 2:1 to either 150 mg of ripretinib or placebo once daily. The primary efficacy endpoint is progression-free survival (PFS) as determined by independent radiologic review using modified Response Evaluation Criteria in Solid Tumors (RECIST). Secondary endpoints as determined by independent radiologic review using modified RECIST include Objective Response Rate (ORR), Time to Tumor Progression (TTP) and Overall Survival (OS).\nPatients whose disease progressed during the double blind phase of the study were escalated to 150 mg BID ripretinib, continued at the 150 mg QD dose, or discontinued in an open label-phase of the study.", "key": {"[1]": {"conditions": "150 mg once daily, BICR, modified RECIST 1.1"}}}
{"smiles": "CCn1c(=O)c(-c2cc(NC(=O)Nc3ccccc3)c(F)cc2Br)cc2cnc(NC)cc21", "note": "[ripretinib]", "values": [{"measurement": "Benefit over placebo (PFS, OS), primary Exon 11 and Exon 9 mutation", "setting": "150 mg QD, FIGS. 17A, 17B", "value": "derive a benefit"}, {"measurement": "OS hazard ratio (HR) vs placebo", "setting": "150 mg once daily", "value": 0.36}, {"measurement": "OS rate at 12 months", "setting": "150 mg once daily", "value": 65.4, "unit": "%"}, {"measurement": "PFS hazard ratio (HR) compared to placebo", "setting": "150 mg once daily", "value": 0.15}, {"measurement": "PFS rate at 6 months", "setting": "150 mg once daily", "value": 51, "unit": "%"}, {"measurement": "Patients with PD, %", "setting": "150 mg once daily", "value": 18.8, "unit": "%"}, {"measurement": "Patients with PD, number", "setting": "150 mg once daily", "value": 16}, {"measurement": "Patients with stable disease (SD) for 12 weeks, number", "setting": "150 mg once daily", "value": 40}, {"measurement": "Reduction of risk of disease progression or death compared to placebo", "setting": "150 mg once daily", "value": 85, "unit": "%"}, {"measurement": "Median PFS", "setting": "[1]", "value": 6.3, "unit": "months"}, {"measurement": "Objective response rate (ORR)", "setting": "[1]", "value": 9.4, "unit": "%"}, {"measurement": "Median PFS", "setting": "150 mg once daily, initial ripretinib arm", "value": 27.6, "unit": "weeks"}, {"measurement": "Median OS", "setting": "150 mg once daily, patients initially randomized to ripretinib", "value": 15.1, "unit": "months"}, {"measurement": "PFS compared to placebo in subgroups with Exon 9, 11, 13 or 17 KIT mutations", "setting": "FIG. 26A-D", "value": "PFS benefit in all assessed patient subgroups"}, {"measurement": "PFS by BICR: events, %", "setting": "double-blind cut", "value": "(60) %"}, {"measurement": "PFS by BICR: number of events", "setting": "double-blind cut", "value": 51}, {"measurement": "PFS by BICR: events, %", "setting": "open-label cut", "value": "(75) %"}, {"measurement": "PFS by BICR: number of events", "setting": "open-label cut", "value": 64}, {"measurement": "Median OS", "setting": "double-blind cut", "value": 15, "unit": "months"}, {"measurement": "Median PFS by BICR", "setting": "double-blind cut", "value": 6.3, "unit": "months"}, {"measurement": "OS hazard ratio", "setting": "double-blind cut", "value": 0.36}, {"measurement": "Overall Response Rate by BICR", "setting": "double-blind cut", "value": 9, "unit": "%"}, {"measurement": "Overall Survival: deaths, %", "setting": "double-blind cut", "value": "(31) %"}, {"measurement": "Overall Survival: number of deaths", "setting": "double-blind cut", "value": 26}, {"measurement": "PFS by BICR: deaths, %", "setting": "double-blind cut", "value": "(6) %"}, {"measurement": "PFS by BICR: deaths, number", "setting": "double-blind cut", "value": 5}, {"measurement": "PFS by BICR: progressive disease, %", "setting": "double-blind cut", "value": "(54) %"}, {"measurement": "PFS by BICR: progressive disease, number", "setting": "double-blind cut", "value": 46}, {"measurement": "PFS hazard ratio", "setting": "double-blind cut", "value": 0.15}, {"measurement": "Median OS", "setting": "open-label cut", "value": "Not Reached"}, {"measurement": "Median PFS by BICR", "setting": "open-label cut", "value": 6.3, "unit": "months"}, {"measurement": "OS hazard ratio", "setting": "open-label cut", "value": 0.43}, {"measurement": "Overall Response Rate by BICR", "setting": "open-label cut", "value": 12, "unit": "%"}, {"measurement": "Overall Survival: deaths, %", "setting": "open-label cut", "value": "(45) %"}, {"measurement": "Overall Survival: number of deaths", "setting": "open-label cut", "value": 38}, {"measurement": "PFS by BICR: deaths, %", "setting": "open-label cut", "value": "(7) %"}, {"measurement": "PFS by BICR: deaths, number", "setting": "open-label cut", "value": 6}, {"measurement": "PFS by BICR: progressive disease, %", "setting": "open-label cut", "value": "(68) %"}, {"measurement": "PFS by BICR: progressive disease, number", "setting": "open-label cut", "value": 58}, {"measurement": "PFS hazard ratio", "setting": "open-label cut", "value": 0.16}, {"measurement": "Median PFS", "setting": "patients crossed over from placebo to ripretinib", "value": 20.0, "unit": "weeks"}, {"measurement": "Median OS", "setting": "patients who crossed over from placebo to ripretinib", "value": 11.6, "unit": "months"}]}
